Laboratory results published in the NIST ThermoML archive (doi:10.1016/j.jct.2014.04.025).
Numbers after ± are expanded uncertainties.

Details: 101.33 kPa, Liquid, Vibrating tube method

Row | SMILES | mass density (298.15 K) [kg/m3] | other results
1 | CCCCCCn1cc[n+](C)c1.N#C[B-](C#N)(C#N)C#N [1-hexyl-3-methylimidazolium tetracyanoborate] | – | mass density (308.15 K): 983.03 ± 1 kg/m3
2 | CC(C)=O [acetone] | 785.32 ± 1 | –
3 | c1ccc2sccc2c1 [benzo[b]thiophene] | – | mass density (308.15 K): 1150.81 ± 1 kg/m3; mass density (318.15 K): 1141.83 ± 1 kg/m3; mass density (328.15 K): 1132.85 ± 1 kg/m3

Continued, in another order:

Row | mass density (298.15 K) [kg/m3] | SMILES | other results
4 | 1058.92 ± 1 | c1ccsc1 [thiophene] | –
5 | 1252.75 ± 1.1 | CCCC[N+]1(C)CCCC1.O=S(=O)([O-])C(F)(F)F [1-butyl-1-methylpyrrolidinium trifluoromethanesulfonate] | –
6 | 1006.91 ± 1.3 | CCCC[N+]1(C)CCCC1.N#CC(=C=[N-])C#N [1-butyl-1-methylpyrrolidinium tricyanomethanide] | –
7 | 679.54 ± 1 | CCCCCCC [heptane] | –
8 | 799.52 ± 1 | CCCO [propan-1-ol] | –
